Calls of active or inactive are those of the source. No cut-off for these calls is given here.
How the values were obtained:
[1] = biological target: Interferon-induced, double-stranded RNA-activated protein kinase (Homo sapiens) (UniProt P19525); settings: Compound concentration 1000.0 nM
[2] = biological target: Serine/threonine-protein kinase PAK 1 (Homo sapiens) (UniProt Q13153); settings: Compound concentration 1000.0 nM
[3] = biological target: Phosphatidylinositol 4,5-bisphosphate 3-kinase catalytic subunit delta isoform (Homo sapiens) (UniProt O00329); settings: Compound concentration 1000.0 nM
[4] = biological target: Macrophage colony-stimulating factor 1 receptor (Homo sapiens) (UniProt P07333); settings: Compound concentration 1000.0 nM
[5] = biological target: Ribosomal protein S6 kinase alpha-2 (Homo sapiens) (UniProt Q15349); settings: Compound concentration 1000.0 nM
[6] = biological target: Mitogen-activated protein kinase kinase kinase 15 (Homo sapiens) (UniProt Q6ZN16); settings: Compound concentration 1000.0 nM
[7] = tested on: Epidermal growth factor receptor (Homo sapiens), P00533 [UNDEFINED MUTATION]; settings: Compound concentration 1000.0 nM
[8] = biological target: Inhibitor of nuclear factor kappa-B kinase subunit epsilon (Homo sapiens) (UniProt Q14164); settings: Compound concentration 1000.0 nM
Inhibitor of nuclear factor kappa-B kinase subunit epsilon (Homo sapiens), sequence (Q14164 whole entry): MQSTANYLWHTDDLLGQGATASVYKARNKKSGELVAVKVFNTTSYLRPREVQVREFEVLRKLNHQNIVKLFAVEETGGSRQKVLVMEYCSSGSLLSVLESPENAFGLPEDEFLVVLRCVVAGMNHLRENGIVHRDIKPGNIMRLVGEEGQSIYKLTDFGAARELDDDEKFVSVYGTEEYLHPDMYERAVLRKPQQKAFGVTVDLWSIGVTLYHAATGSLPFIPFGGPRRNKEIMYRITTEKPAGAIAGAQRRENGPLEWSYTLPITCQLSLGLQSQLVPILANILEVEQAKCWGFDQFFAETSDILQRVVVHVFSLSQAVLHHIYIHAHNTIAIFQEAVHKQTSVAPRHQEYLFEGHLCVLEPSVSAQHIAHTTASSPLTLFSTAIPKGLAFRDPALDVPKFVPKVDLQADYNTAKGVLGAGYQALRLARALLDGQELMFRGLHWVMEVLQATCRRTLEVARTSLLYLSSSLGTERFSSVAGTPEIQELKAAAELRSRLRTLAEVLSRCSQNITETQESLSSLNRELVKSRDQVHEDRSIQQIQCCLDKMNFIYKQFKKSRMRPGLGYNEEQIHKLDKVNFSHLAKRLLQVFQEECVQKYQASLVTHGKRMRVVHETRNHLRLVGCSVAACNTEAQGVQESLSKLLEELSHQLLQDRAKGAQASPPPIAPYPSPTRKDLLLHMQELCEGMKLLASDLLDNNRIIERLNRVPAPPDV

[9] = biological target: Mitogen-activated protein kinase kinase kinase kinase 2 (Homo sapiens) (UniProt Q12851); settings: Compound concentration 1000.0 nM
Mitogen-activated protein kinase kinase kinase kinase 2 (Homo sapiens), sequence (Q12851 whole entry): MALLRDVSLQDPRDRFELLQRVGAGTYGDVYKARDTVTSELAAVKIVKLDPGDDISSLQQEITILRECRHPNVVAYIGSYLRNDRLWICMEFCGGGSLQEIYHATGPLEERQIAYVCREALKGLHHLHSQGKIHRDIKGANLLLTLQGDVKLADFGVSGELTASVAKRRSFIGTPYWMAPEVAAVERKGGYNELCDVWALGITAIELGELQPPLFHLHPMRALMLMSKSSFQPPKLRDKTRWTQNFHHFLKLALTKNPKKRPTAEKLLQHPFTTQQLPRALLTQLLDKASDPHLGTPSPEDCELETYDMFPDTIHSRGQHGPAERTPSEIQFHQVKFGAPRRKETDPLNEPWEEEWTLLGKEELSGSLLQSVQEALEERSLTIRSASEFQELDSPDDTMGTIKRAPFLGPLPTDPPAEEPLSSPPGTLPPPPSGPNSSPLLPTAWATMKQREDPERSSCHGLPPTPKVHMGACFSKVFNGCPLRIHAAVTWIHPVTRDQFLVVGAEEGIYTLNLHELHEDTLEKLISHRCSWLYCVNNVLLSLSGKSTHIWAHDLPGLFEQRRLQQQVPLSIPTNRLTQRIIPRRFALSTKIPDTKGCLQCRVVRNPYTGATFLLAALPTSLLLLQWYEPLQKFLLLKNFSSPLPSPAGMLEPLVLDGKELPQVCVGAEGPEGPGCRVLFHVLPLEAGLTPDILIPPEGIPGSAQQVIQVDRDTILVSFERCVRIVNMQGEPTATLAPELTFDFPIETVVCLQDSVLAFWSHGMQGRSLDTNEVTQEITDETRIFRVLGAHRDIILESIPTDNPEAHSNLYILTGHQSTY

[10] = biological target: Epidermal growth factor receptor (Homo sapiens) (UniProt P00533); settings: Compound concentration 1000.0 nM
[11] = biological target: Mitogen-activated protein kinase 10 (Homo sapiens) (UniProt P53779); settings: Compound concentration 1000.0 nM
Mitogen-activated protein kinase 10 (Homo sapiens), sequence (P53779 whole entry): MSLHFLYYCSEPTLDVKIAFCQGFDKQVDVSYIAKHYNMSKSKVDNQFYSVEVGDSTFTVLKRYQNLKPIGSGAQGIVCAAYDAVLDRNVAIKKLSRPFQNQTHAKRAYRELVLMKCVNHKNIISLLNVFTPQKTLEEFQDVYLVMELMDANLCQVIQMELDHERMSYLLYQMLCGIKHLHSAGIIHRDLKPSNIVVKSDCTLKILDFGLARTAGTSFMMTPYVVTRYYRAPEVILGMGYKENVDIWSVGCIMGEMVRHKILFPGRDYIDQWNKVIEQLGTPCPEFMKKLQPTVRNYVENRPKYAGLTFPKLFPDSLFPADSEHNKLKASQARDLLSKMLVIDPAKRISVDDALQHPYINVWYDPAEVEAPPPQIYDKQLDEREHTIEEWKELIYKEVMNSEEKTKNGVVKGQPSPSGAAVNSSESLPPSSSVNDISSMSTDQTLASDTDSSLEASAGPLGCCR

[12] = biological target: Serine/threonine-protein kinase NIM1 (Homo sapiens) (UniProt Q8IY84); settings: Compound concentration 1000.0 nM
[13] = biological target: Mitogen-activated protein kinase 4 (Homo sapiens) (UniProt P31152); settings: Compound concentration 1000.0 nM
Mitogen-activated protein kinase 4 (Homo sapiens), sequence (P31152 whole entry): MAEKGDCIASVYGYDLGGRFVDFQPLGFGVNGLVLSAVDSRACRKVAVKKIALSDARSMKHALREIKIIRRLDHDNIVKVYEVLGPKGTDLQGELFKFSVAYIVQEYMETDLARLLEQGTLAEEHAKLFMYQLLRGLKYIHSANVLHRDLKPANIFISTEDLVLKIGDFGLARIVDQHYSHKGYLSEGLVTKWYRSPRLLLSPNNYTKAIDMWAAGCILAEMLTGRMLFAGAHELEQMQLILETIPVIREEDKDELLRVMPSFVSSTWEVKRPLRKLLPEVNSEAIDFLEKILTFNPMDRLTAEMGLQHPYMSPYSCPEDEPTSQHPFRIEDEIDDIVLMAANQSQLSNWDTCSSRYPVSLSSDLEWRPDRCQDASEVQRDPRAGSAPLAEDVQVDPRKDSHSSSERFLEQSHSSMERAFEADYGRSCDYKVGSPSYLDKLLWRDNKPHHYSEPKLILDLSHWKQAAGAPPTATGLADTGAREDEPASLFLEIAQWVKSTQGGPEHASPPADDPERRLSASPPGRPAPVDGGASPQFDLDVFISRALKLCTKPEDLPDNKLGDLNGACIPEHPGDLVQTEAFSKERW

[14] = biological target: GABA-A receptor; anion channel (Rattus norvegicus) (UniProt O09028+P15431+P18506+P18508+P19969+P20236+P23574+P23576+P28471+P28473+P30191+P62813+P63079+P63138+Q91ZM7+Q9ES14); settings: Compound concentration 10.0 uM
[15] = biological target: Focal adhesion kinase 1 (Homo sapiens) (UniProt Q05397); settings: Compound concentration 1000.0 nM
[16] = tested on: Phosphatidylinositol 4,5-bisphosphate 3-kinase catalytic subunit alpha isoform (Homo sapiens), P42336 [E542K]; settings: Compound concentration 1000.0 nM
[17] = biological target: Proto-oncogene tyrosine-protein kinase Src (Homo sapiens) (UniProt P12931); settings: Compound concentration 1000.0 nM
[18] = tested on: Mast/stem cell growth factor receptor Kit (Homo sapiens), P10721 [V559D]; settings: Compound concentration 1000.0 nM
Mast/stem cell growth factor receptor Kit (Homo sapiens), P10721 [V559D], sequence (P10721 whole entry V559D): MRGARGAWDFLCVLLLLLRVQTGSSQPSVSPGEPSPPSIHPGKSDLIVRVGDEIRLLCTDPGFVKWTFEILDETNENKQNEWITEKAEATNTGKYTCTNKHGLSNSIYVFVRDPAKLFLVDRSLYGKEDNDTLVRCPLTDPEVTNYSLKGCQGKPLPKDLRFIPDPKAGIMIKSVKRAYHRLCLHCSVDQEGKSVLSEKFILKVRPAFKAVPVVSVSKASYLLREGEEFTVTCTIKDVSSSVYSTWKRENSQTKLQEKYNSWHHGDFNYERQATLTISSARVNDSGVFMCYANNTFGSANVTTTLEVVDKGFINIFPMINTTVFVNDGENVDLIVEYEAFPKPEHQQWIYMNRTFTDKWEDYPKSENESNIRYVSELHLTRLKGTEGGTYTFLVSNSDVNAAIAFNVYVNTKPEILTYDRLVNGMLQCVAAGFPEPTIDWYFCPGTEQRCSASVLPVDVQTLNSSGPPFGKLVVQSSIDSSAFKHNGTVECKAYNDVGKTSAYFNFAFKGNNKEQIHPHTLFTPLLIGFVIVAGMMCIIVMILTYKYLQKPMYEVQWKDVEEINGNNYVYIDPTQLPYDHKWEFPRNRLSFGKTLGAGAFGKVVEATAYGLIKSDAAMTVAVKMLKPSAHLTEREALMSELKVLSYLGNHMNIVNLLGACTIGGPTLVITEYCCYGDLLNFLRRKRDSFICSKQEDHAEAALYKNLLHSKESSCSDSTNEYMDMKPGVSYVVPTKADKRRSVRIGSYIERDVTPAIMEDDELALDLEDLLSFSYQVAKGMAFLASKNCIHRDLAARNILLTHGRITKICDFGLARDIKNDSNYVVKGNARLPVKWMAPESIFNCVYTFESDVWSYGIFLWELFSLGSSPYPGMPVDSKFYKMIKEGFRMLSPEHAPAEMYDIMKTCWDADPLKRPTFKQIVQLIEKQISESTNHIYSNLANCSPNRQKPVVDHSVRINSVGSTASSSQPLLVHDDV

[19] = biological target: Glycogen synthase kinase-3 beta (Homo sapiens) (UniProt P49841); settings: Compound concentration 1000.0 nM
[20] = biological target: Myosin light chain kinase (Homo sapiens) (UniProt Q32MK0); settings: Compound concentration 1000.0 nM
[21] = biological target: Aurora kinase C (Homo sapiens) (UniProt Q9UQB9); settings: Compound concentration 1000.0 nM
[22] = biological target: Dual specificity protein kinase CLK2 (Homo sapiens) (UniProt P49760); settings: Compound concentration 1000.0 nM
[23] = biological target: Ribosomal protein S6 kinase alpha-6 (Homo sapiens) (UniProt Q9UK32); settings: Compound concentration 1000.0 nM
[24] = biological target: Serine/threonine-protein kinase 3 (Homo sapiens) (UniProt Q13188); settings: Compound concentration 1000.0 nM
[25] = biological target: Homeodomain-interacting protein kinase 1 (Homo sapiens) (UniProt Q86Z02); settings: Compound concentration 1000.0 nM
[26] = biological target: 3-phosphoinositide-dependent protein kinase 1 (Homo sapiens) (UniProt O15530); settings: Compound concentration 1000.0 nM
[27] = biological target: T1, Mucosa-associated lymphoid tissue lymphoma translocation protein 1 (Homo sapiens, UniProt Q9UDY8); experiment: Human biochemical (TR-FRET) assay (high salt)
T1 sequence (Q9UDY8 whole entry): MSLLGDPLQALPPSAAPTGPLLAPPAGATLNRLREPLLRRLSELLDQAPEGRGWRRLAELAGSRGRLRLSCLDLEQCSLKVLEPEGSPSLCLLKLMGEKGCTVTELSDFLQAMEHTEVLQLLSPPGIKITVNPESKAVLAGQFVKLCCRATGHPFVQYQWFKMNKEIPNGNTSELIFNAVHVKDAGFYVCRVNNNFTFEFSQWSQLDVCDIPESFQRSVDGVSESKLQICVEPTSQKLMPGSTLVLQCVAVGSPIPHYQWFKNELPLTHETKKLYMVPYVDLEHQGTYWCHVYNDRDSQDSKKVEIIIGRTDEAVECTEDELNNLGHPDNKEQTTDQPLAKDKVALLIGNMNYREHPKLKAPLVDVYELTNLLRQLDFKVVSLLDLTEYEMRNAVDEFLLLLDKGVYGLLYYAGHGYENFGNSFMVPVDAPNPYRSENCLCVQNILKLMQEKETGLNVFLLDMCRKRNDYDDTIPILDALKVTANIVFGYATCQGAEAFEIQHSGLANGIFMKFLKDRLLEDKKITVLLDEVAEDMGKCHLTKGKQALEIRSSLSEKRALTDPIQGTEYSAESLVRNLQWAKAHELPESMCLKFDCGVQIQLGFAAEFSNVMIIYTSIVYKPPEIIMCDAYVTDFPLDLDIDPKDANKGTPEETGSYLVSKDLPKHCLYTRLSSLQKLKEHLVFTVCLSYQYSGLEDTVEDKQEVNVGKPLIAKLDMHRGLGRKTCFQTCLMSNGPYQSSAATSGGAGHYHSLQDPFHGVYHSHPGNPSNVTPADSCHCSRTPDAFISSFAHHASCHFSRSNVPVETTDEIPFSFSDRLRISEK

[28] = biological target: Peripheral plasma membrane protein CASK (Homo sapiens) (UniProt O14936); settings: Compound concentration 1000.0 nM
[29] = tested on: ALK tyrosine kinase receptor (Homo sapiens), Q9UM73 [L1196M]; settings: Compound concentration 1000.0 nM
[30] = tested on: Receptor-type tyrosine-protein kinase FLT3 (Homo sapiens), P36888 [UNDEFINED MUTATION]; settings: Compound concentration 1000.0 nM
[31] = biological target: Muscle, skeletal receptor tyrosine-protein kinase (Homo sapiens) (UniProt O15146); settings: Compound concentration 1000.0 nM
Muscle, skeletal receptor tyrosine-protein kinase (Homo sapiens), sequence (O15146 whole entry): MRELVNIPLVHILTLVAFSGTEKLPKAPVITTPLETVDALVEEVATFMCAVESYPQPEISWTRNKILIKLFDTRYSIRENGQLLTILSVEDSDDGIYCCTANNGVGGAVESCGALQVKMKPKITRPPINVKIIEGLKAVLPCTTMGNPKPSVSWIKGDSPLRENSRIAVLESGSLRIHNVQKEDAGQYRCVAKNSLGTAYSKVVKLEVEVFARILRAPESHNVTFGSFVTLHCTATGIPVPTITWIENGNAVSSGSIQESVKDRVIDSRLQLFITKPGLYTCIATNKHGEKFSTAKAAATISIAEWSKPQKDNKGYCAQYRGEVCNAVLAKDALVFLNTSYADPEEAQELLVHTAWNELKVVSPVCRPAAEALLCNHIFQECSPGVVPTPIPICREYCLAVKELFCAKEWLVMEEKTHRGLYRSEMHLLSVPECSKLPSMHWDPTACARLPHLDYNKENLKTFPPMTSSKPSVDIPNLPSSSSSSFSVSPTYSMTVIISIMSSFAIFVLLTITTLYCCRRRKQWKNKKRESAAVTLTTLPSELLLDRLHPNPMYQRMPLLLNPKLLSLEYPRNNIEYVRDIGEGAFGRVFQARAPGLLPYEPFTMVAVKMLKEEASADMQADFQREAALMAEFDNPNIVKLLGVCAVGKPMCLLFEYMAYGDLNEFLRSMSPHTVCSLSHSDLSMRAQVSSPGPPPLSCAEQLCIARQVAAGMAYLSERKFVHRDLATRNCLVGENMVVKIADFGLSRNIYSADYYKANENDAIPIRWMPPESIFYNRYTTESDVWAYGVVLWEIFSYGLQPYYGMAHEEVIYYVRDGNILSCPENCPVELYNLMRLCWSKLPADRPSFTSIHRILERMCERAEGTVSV

[32] = biological target: STE20/SPS1-related proline-alanine-rich protein kinase (Homo sapiens) (UniProt Q9UEW8); settings: Compound concentration 1000.0 nM

Serine/threonine-protein kinase PAK 1 (Homo sapiens), sequence (Q13153 whole entry, canonical isoform): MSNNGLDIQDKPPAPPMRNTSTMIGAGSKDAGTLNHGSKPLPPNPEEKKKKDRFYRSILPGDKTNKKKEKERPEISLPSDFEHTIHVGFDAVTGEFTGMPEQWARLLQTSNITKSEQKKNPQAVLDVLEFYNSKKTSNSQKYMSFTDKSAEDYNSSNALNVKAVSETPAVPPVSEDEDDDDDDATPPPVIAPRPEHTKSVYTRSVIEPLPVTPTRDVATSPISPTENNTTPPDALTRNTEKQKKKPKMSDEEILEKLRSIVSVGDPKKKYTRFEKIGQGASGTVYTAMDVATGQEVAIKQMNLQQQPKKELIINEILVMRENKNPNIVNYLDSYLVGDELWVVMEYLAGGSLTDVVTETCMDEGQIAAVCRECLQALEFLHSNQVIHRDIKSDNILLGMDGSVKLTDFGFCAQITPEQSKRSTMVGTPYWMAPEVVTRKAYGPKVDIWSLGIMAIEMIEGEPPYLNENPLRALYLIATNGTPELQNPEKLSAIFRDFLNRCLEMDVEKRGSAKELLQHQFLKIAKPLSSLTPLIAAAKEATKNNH

Row | SMILES | residual activity [1] | residual activity [2] | residual activity [3] | residual activity [4] | residual activity [5] | residual activity [6] | residual activity [7] | residual activity [8] | residual activity [9] | residual activity [10] | residual activity [11] | residual activity [12] | residual activity [13] | inhibition [14] | residual activity [15] | residual activity [16] | residual activity [17] | residual activity [18] | residual activity [19] | residual activity [20] | also measured
1 | CO[C@@H](C)c1c(Nc2ccc([C@H](N(C)C(=O)C3CCS(=O)(=O)CC3)C(F)(F)F)cc2)cnc2cc(Cl)nn12 [NVS-MALT1] | 96% | 74% | 98% | 77% | 100% | 100% | 100% | 100% | 100% | 93% | 96% | 79% | 94% | 27.9% | 85% | 71% | 99% | 100% | 100% | 84% | residual activity [21]: 77%; residual activity [22]: 100%; residual activity [23]: 91%; residual activity [24]: 92%; residual activity [25]: 40%; residual activity [26]: 100%; IC50 [27]: 2.4 nM (active); residual activity [28]: 100%; residual activity [29]: 100%; residual activity [30]: 90%; residual activity [31]: 83%; residual activity [32]: 50%
2 | CO[C@@H](C)c1c(Nc2ccc([C@@H](N(C)C(=O)C3CCS(=O)(=O)CC3)C(F)(F)F)cc2)cnc2cc(Cl)nn12 [NVS-MALT1-C] | 88% | 83% | 87% | 72% | 100% | 100% | 90% | 100% | 100% | 95% | 78% | 85% | 100% | 19.2% | 90% | 78% | 98% | 100% | 100% | 87% | residual activity [21]: 85%; residual activity [22]: 100%; residual activity [23]: 98%; residual activity [24]: 100%; residual activity [25]: 56%; residual activity [26]: 97%; IC50 [27]: 190 nM (active); residual activity [28]: 100%; residual activity [29]: 94%; residual activity [30]: 87%; residual activity [31]: 88%; residual activity [32]: 50%
